This is an account of results in patent US6869930B1, “Acylated insulin” (priority 1993, dated 2005).

The nature of series [1]: Lipophilicity relative to human insulin, k′rel, by isocratic RP-HPLC (LiChrosorb RP18). In kind it is physicochemical. The settings on record: pH 7.3. Here is the method:
The elution was monitored by following the UV absorption of the eluate at 214 nm. Void time, t0, was found by injecting 0.1 mM sodium nitrate.

The next series deals with rabbits. In words: Single day retardation test: prolongation of the blood glucose lowering effect in rabbits. It counts as in vivo.

Protocol for rabbits: The degree of prolongation of the blood glucose lowering effect was studied in rabbits. Each insulin derivative was tested by subcutaneous injection of 12 nmol thereof in, each of six rabbits in the single day retardation test. Blood sampling for glucose analysis was performed before injection and at 1, 2, 4 and 6 hours after injection. The glucose values found are expressed as percent of initial values.

“Lys^B29(N^ε-[N^α-tetradecanoyl Aad(−)-OH]) des(B30) Human Insulin [Example 42]”: in series [1], the “lipophilicity relative to human insulin, k′rel” value turned out to be 21.

For the substance “Lys^B29(N^ε-[N^α-tetradecanoyl-γ-carboxy-Glu-]) des(B30) Human Insulin [Example 43]”, in series [1], the “lipophilicity relative to human insulin, k′rel” value came to 10.

On to “N^εB29-lithocholoyl insulin [N^εB29-lithocholoyl insulin (Zn-free)]”, for which, in series [1], the “Relative Lipophilicity” value came to 51.6. Besides, the “Blood glucose, % of initial 1 h” value with rabbits (12 nmol subcutaneous, 1 h after injection, 3 Zn^2+/insulin hexamer except where Zn-free) is 98.3 % of initial. Further, the “Blood glucose, % of initial 2 h” value in the series with rabbits (12 nmol subcutaneous, 2 h after injection, 3 Zn^2+/insulin hexamer except where Zn-free) is listed as 92.3 % of initial. In addition, the “Blood glucose, % of initial 4 h” value in the series on rabbits (12 nmol subcutaneous, 4 h after injection, 3 Zn^2+/insulin hexamer except where Zn-free) is reported as 100.5 % of initial. Further, the “Blood glucose, % of initial 6 h” value in the series with rabbits (12 nmol subcutaneous, 6 h after injection, 3 Zn^2+/insulin hexamer except where Zn-free) was 93.4 % of initial. Also, the Index of protraction in the series with rabbits (calculated from blood glucose values, scaled: 100 = bovine ultralente insulin, 0 = Actrapid insulin) is reported as 115.
